pIC50: −log10 of the molar value. Read-outs that look alike come from different tables or passages of the source.
Key:
[1] = target: T1, Dopamine D1 (Homo sapiens, UniProt P21728); test: radioligand binding (Table S2); settings: [3H] SCH 23390, Human recombinant CHO cells
T1 construct: host or cells: CHO cells

[2] = target: T2, Dopamine D2S (Homo sapiens, UniProt P14416); test: radioligand binding (Table S2); settings: [3H] 7-OH-DPAT, Human recombinant HEK-293 cells
T2 construct: host or cells: HEK-293 cells
T2 sequence (P14416 1-414 isoform P14416-2): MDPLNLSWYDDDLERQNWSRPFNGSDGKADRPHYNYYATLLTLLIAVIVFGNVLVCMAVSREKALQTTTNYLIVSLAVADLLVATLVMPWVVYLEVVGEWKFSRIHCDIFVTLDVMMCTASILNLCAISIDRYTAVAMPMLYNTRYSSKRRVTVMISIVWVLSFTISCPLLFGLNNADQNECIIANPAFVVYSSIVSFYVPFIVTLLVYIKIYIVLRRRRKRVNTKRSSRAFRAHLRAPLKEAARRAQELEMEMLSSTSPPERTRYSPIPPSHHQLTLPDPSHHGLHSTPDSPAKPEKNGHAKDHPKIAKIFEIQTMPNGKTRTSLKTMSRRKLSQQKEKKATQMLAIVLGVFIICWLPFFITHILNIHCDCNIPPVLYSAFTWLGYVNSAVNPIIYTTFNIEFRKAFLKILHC

[3] = target: T3, Opioid κ (KOP) (Rattus norvegicus, UniProt P34975); test: radioligand binding (Table S2); settings: [3H] U 69593, Rat recombinant CHO cells
T3 construct: host or cells: CHO cells
T3 sequence (P34975 whole entry): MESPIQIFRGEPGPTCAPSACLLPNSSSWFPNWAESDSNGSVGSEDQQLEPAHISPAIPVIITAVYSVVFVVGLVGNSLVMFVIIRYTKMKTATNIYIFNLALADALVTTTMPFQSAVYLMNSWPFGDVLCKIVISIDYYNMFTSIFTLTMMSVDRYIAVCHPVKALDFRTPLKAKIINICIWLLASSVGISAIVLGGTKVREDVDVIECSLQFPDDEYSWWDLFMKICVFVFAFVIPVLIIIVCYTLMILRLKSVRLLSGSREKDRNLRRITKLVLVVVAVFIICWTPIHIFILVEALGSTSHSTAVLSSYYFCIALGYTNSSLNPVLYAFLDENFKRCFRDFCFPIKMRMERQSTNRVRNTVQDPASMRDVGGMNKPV

[4] = target: T4, Serotonin 5-HT4 e (Homo sapiens, UniProt Q13639); test: radioligand binding (Table S2); settings: [3H] GR 113808, Human recombinant CHO cells
T4 construct: host or cells: CHO cells

[5] = target: T5, Platelet-activating factor PAF (Homo sapiens, UniProt P25105); test: radioligand binding (Table S2); settings: [3H] C16-PAF, Human recombinant CHO cells
T5 construct: host or cells: CHO cells
T5 sequence (P25105 whole entry): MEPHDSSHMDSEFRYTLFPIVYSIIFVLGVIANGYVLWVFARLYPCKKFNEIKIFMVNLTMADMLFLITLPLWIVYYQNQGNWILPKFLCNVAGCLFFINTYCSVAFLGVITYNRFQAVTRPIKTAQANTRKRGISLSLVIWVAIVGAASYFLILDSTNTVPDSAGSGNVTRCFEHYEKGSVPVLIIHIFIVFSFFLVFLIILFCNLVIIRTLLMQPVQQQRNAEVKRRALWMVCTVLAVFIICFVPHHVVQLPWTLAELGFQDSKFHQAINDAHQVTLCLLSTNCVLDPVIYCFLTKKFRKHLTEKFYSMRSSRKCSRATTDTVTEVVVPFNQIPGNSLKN

[6] = target: T6, PDGFRβ kinase (Homo sapiens, UniProt P09619); test: enzyme assay (Table S2); type: biochemical; settings: ATP + Ulight-PolyGAT (25 nM), LANCE
T6 construct: host or cells: insect cells
T6 sequence (P09619 33-1106): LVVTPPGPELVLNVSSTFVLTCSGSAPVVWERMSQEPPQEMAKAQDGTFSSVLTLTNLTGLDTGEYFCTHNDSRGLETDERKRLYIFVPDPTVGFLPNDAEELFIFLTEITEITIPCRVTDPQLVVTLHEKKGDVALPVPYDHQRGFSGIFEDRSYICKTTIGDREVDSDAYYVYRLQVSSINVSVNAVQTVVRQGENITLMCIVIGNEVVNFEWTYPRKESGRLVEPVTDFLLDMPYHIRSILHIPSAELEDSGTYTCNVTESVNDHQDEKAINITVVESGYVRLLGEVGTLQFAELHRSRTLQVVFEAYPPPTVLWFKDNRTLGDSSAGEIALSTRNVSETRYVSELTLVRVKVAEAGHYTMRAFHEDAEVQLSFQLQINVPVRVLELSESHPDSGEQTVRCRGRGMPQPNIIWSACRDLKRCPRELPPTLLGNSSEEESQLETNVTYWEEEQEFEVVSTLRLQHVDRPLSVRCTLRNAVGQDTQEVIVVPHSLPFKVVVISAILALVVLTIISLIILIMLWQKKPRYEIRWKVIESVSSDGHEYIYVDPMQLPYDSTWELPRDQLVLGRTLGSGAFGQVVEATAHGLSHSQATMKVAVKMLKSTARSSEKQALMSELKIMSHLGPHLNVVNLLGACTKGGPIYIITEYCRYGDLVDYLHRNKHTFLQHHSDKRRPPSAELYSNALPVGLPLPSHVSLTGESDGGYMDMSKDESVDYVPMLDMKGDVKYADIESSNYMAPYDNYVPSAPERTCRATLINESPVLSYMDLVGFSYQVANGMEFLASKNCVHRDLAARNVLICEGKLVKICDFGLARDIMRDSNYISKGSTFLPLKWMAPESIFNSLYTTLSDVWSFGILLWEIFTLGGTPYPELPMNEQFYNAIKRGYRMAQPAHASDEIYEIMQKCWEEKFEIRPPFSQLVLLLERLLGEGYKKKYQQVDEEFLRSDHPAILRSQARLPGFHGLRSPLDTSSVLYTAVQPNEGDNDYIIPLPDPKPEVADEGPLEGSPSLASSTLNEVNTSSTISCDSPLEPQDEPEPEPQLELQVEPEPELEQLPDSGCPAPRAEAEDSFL

[7] = in vitro; settings: human, Caco-2
[8] = target: T7, Endothelin ETA (Homo sapiens, UniProt P25101); test: radioligand binding (Table S2); settings: [125I] Endothelin-1, Human recombinant CHO cells
T7 construct: host or cells: CHO cells
T7 sequence (P25101 21-427): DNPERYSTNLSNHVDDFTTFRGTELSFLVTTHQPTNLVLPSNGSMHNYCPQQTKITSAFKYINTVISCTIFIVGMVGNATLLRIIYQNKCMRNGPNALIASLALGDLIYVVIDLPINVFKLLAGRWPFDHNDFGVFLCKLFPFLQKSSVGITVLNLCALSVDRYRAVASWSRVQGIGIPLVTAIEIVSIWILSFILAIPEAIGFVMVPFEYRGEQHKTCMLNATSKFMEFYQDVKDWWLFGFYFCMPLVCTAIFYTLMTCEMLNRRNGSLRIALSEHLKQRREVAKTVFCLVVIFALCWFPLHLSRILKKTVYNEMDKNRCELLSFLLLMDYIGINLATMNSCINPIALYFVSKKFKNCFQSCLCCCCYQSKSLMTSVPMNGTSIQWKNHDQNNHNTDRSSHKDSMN

[9] = target: T8, mouse B2 receptor (Mus musculus, UniProt P32299); test: Ca^2+ mobilization assay, HEK293T cells; type: cell-based; settings: BK at EC80 0.53 nM, n=1
T8 construct: host or cells: HEK293T cells
T8 sequence (P32299 1-392): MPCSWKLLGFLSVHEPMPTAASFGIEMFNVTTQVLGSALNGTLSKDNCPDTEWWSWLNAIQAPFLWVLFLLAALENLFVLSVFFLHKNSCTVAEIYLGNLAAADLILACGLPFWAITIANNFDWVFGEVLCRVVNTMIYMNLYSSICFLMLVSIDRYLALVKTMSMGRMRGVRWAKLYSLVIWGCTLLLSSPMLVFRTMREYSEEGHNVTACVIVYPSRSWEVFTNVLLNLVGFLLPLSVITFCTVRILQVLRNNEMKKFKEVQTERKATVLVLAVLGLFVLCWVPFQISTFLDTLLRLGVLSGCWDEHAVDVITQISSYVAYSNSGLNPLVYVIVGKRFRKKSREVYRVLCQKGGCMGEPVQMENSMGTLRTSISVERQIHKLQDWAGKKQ

[10] = target: Chemokine CXCR2 (IL-8RB) (Homo sapiens, UniProt P25025); test: radioligand binding (Table S2); settings: [125I] IL-8, Human recombinant CHO-K1 cells
[11] = target: T9, Serotonin 5-HT transporter (Homo sapiens, UniProt P31645); test: radioligand binding (Table S2); settings: [3H] Imipramine, Human recombinant CHO cells
T9 construct: host or cells: CHO cells

[12] = target: T10, TP (TXA2/PGH2) (Homo sapiens, UniProt P21731); test: functional assay, intracellular [Ca2+], HEK-293 cells (Table S2); type: cell-based; settings: for inhibition at 10 µM: HEK293, read-out: % inhibition of reference agonist response @ 10 µM (antagonist effect), 10 µM, U 44069 (10 nM)
T10 construct: expressed in transfected cells; host or cells: HEK-293 cells
T10 sequence (P21731 1-343): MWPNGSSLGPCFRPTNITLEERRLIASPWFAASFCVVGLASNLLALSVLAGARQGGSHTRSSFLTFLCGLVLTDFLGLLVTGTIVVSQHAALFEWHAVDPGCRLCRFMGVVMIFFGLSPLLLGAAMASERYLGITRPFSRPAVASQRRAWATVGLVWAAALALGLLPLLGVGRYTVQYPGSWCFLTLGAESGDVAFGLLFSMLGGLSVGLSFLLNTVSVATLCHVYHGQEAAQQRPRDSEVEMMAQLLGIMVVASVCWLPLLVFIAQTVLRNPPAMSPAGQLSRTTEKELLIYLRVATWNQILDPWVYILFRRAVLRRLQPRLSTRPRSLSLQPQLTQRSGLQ

[13] = target: T11, Vasopressin V1B (Homo sapiens, UniProt P47901); test: functional assay, intracellular [Ca2+], RBL cells (Table S2); type: cell-based; settings: read-out: % inhibition of reference agonist response @ 10 µM (antagonist effect), Vasopressin (5 nM)
T11 construct: expressed in transfected cells; host or cells: RBL cells
T11 sequence (P47901 whole entry): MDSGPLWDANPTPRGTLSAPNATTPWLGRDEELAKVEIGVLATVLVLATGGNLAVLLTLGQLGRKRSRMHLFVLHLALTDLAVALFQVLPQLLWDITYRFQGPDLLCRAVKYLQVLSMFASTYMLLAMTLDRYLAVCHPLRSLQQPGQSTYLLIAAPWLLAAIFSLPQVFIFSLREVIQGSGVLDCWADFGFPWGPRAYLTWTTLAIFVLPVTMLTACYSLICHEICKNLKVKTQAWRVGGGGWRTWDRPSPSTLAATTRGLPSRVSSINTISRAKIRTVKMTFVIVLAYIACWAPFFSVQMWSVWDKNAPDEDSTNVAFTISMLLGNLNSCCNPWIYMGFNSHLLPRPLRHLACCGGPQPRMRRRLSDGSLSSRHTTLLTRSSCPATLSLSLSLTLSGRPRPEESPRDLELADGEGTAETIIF

[14] = test system: Glutamate ionotropic, NMDA; test: radioligand binding (Table S2); settings: [3H] CGP 39653, Rat cerebral cortex
[15] = target: T12, Corticotropin-releasing hormone receptor CRF1 (Homo sapiens, UniProt P34998); test: radioligand binding (Table S2); settings: [125I] Sauvagine, Human recombinant CHO cells
T12 construct: host or cells: CHO cells
T12 sequence (P34998 24-415): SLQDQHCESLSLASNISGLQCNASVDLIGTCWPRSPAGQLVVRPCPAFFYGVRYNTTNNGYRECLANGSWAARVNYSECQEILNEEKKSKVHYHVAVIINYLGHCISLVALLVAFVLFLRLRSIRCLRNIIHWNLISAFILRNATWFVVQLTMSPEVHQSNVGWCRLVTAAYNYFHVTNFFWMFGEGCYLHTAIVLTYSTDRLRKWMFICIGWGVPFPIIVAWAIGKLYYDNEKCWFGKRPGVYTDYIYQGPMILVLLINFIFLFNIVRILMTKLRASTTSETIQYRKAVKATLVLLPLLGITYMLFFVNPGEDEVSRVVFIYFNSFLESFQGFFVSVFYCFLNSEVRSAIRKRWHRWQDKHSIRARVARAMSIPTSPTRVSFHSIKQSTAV

[16] = target: T13, Neurokinin NK3 (Homo sapiens, UniProt P29371); test: functional assay, intracellular [Ca2+], CHO cells (Table S2); type: cell-based
T13 construct: host or cells: CHO cells
T13 sequence (P29371 1-465): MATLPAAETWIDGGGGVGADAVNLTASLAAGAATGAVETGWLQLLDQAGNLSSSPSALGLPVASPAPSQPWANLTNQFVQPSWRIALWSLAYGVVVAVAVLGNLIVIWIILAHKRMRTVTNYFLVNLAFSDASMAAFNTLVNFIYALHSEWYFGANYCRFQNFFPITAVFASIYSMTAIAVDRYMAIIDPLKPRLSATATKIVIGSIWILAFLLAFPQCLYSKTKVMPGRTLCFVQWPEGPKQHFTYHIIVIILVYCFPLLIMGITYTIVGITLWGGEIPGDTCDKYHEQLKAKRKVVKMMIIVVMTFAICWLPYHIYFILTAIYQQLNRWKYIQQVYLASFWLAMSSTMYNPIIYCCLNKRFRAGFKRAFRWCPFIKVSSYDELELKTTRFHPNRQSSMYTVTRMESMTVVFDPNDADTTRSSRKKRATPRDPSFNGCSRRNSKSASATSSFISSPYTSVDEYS

[17] = target: T14, Chemokine CCR1 (Homo sapiens, UniProt P32246); test: radioligand binding (Table S2); settings: [125I] MIP-1α, Human recombinant HEK-293 cells
T14 construct: host or cells: HEK-293 cells
T14 sequence (P32246 whole entry): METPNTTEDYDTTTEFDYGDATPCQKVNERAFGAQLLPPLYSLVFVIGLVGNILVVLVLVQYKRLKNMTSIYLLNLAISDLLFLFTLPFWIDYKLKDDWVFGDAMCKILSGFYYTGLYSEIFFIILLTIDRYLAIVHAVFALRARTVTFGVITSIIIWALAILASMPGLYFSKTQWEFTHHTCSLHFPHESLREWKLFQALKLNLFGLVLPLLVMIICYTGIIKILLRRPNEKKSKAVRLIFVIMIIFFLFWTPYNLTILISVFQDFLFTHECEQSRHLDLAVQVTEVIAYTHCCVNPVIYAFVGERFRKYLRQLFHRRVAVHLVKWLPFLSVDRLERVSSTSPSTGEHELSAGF

[18] = test system: Caco-2 cell monolayer; settings: human, Caco-2, 60 min, 10 µM
[19] = target: T15, Serotonin 5-HT3 (Homo sapiens, UniProt P46098); test: radioligand binding (Table S2); settings: [3H] BRL 43694, Human recombinant CHO cells
T15 construct: host or cells: CHO cells
T15 sequence (P46098 24-478): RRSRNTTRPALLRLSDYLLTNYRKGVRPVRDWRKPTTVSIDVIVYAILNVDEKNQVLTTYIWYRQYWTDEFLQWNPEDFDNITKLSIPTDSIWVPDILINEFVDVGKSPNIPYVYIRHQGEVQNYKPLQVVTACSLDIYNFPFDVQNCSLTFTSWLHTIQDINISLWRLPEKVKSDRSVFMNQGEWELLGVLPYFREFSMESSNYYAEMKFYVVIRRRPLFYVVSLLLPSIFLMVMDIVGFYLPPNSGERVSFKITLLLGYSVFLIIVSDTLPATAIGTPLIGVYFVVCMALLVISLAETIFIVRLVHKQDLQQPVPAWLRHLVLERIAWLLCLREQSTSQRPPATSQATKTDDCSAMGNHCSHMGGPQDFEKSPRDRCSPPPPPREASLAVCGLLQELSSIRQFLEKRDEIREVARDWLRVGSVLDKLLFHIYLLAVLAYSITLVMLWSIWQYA

T1 sequence (P21728 whole entry): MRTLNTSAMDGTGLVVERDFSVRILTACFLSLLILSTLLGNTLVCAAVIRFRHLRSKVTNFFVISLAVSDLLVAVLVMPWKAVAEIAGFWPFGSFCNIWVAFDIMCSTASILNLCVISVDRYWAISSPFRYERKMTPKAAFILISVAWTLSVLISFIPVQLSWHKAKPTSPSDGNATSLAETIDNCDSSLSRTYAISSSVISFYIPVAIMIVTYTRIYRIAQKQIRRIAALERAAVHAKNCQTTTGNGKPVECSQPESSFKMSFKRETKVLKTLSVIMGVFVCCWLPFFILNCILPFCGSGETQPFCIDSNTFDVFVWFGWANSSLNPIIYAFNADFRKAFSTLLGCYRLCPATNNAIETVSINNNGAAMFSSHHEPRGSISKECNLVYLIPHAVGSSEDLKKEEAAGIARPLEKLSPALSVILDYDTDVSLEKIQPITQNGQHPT

For Cc1cc(-c2ncnn2C)c2cccc(OCc3c(Cl)cc(F)cc3[C@H](C)NC(=O)COC(F)F)c2n1 [Compound 3, (S)-N-(1-(3-chloro-5-fluoro-2-((2-methyl-4-(1-methyl-1H-1,2,4-triazol-5-yl)quinolin-8-yloxy)methyl)phenyl)ethyl)-2-(difluoromethoxy)acetamide], the inhibition at 10 µM [1] was 6.9%, the inhibition at 10 µM [2] was -2.7% and the inhibition at 10 µM [3] was 15.4%. The inhibition at 10 µM [4] was -0.9%, the inhibition at 10 µM [5] was 25% and the inhibition at 10 µM [6] was -1%. The Papp A→B at 60 min, 10 µM [7] was 173 nm/s, the Papp B→A at 60 min, 10 µM [7] was 176 nm/s and the inhibition at 10 µM [8] was -2.1%. It also gave an IC50 [9] of ~1200 nM, a Kb [9] of ~350 nM and an inhibition at 10 µM [10] of 17%. For the same compound, the inhibition at 10 µM [11] was -23.4%, the pIC50 [12] was 5.44 and the Kb [12] was 0.51 µM. For the same compound, the “% of reference agonist response @ 10 µM (agonist effect)” value ([12]; 10 µM, reference U 44069 (0.3 µM)) was -2.8%, the inhibition at 10 µM ([12]; first entry of Table S2, single concentration) was 62.3% and the inhibition at 10 µM ([12]; second entry of Table S2, with IC50 and KB) was 55.1%. The inhibition at 10 µM [13] was 7.7%, the “% Inhibition @ 10 µM” value [14] was 5.1% and the “% Inhibition @ 10 µM” value [15] was 74%. The inhibition at 10 µM [15] was 73.5%, the “% of reference agonist response @ 10 µM (agonist effect)” value ([16]; 10 µM, reference [MePhe7]-NKB (30 nM)) was 7.0% and the inhibition at 10 µM ([16]; CHO, read-out: % inhibition of reference agonist response @ 10 µM (antagonist effect), 10 µM, [MePhe7]-NKB (1 nM)) was 40.8%. For the same compound, the IC50 ([16]; [MePhe7]-NKB (1 nM), read-out: IC50 (µM), functional antagonism) was 17 µM, the Kb ([16]; [MePhe7]-NKB (1 nM), read-out: Kb (µM), functional antagonism) was 1.6 µM and the inhibition at 10 µM [17] was -9.6%. For the same compound, the “Caco-2 AB, apparent permeation rate apical to basolateral direction” value [18] was > 10^-5 cm/s and the inhibition at 10 µM [19] was 2.1%.
